# In PMC6302136, “Quantitative Chemotherapeutic Profiling of Gynecologic Cancer Cell Lines Using Approved Drugs and Bioactive Compounds^” (Translational Oncology, 2018):
# Read-outs that look alike come from different tables or passages of the source. *1 amine or outer side, *2 acyl side, *3 side chain or, on linkers, in order; H or OH if unused. Where a SMILES comes first, the peptide text is derived from it. Bridges are numbered along the chain shown (N, C = ends). Roman numbers before positions name the chains, in order. [ ]: non-standard residue; d: D form. Actinocin(9to1) = Cc1c2oc3c(C)ccc(C(=O)[*:1])c3nc-2c(C(=O)[*:2])c(N)c1=O; NMeV = CN[C@H](C(=O)O)C(C)C; Sar = CNCC(=O)O
# Experiments:
# [1] = test system: 11 gynecologic cancer cell lines; assay: qHTS ATPlite cell viability, gynecologic cancer cell lines (ovarian, cervical, placental); assay type: cell-based, human; details: for IC90 / IC50: Homo sapiens; for Cell Lines Active: number of the 11 cancer cell lines in which the compound is active (<1 μM potency, >70% efficacy)
# Procedure: (§1) The ATPlite luminescence assay system assay kit was used to determine cell viability. The reagent was reconstituted and prepared as described by the manufacturer. To measure the cell death caused by the compounds, cells were cultured in 4 μl of media for 16 hours at 37°C with 5% CO2 in assay plates, followed by the addition of DMSO or 16 SOC chemotherapeutic compounds dissolved in DMSO. SOC compounds were dosed at 11 concentrations (1:3 dilution) in quadruplicate from 57.5 μM to 0.977 nM using the automated Wako 1536 Pin Tool workstation and incubated at 37°C with 5% CO2 for 24, 48, or 72 hours. Four microliters of ATPlite, the ATP monitoring reagent, was then added to each well of the assay plates using the Multidrop Combi reagent dispenser followed by incubation for 15 minutes at room temperature. The resulting luminescence was measured using the ViewLux plate reader. Data were normalized for each drug using the largest luminescence value as 100% full cell viability (0% cell killing) and to the smallest luminescence value 0% viability (100% cell killing).
# (§2) A qHTS [79], in which each compound was assayed in five concentrations (0.092, 0.46, 2.3, 11.5, and 57.5 μM), was performed for the primary compound screen using the NPC [80] and NPACT drug libraries at NCATS. The OBGYN cancer and HEK 293T control cells were seeded into 1536-well assay plates at 1000 cells per 4 μl/well and incubated at 37°C in 5% CO2 for 48 hours. The ATPlite assay to determine the IC50 values for each compound was conducted as described above. Plates were processed on the fully integrated Kalypsys robotic system.
# [2] = test system: ovarian and placental cancer cell lines; assay: qHTS ATPlite cell viability, ovarian + placental cancer cell lines; assay type: cell-based, human; details: for IC50: Homo sapiens, 48 h; for Average SI: vs HEK 293T, >100 = inactive in HEK293T
# Procedure: as §1, §2
# [3] = cited from earlier work
# [4] = test system: ovarian and cervical cancer cell lines; assay: qHTS ATPlite cell viability, ovarian + cervical cancer cell lines; assay type: cell-based, human; details: Ovarian + cervical cancer cell line killer
# Procedure: A qHTS [79], in which each compound was assayed in five concentrations (0.092, 0.46, 2.3, 11.5, and 57.5 μM), was performed for the primary compound screen using the NPC [80] and NPACT drug libraries at NCATS. […]
# CAOV-3 cells = assay: ATP content (ATPlite) cell viability assay in CAOV-3 cells; assay type: cell-based, human; details: assay optimization
# Procedure: as §1
# PA-1 cells = assay: ATP content (ATPlite) cell viability assay in PA-1 cells; assay type: cell-based, human; details: assay optimization, read-out: IC50 (PA-1)
# HDAC 1/2/3 = details: against HDAC 1/2/3 only; cited from earlier work
# [5] = test system: ovarian cancer cell lines; assay: qHTS ATPlite cell viability, ovarian cancer cell lines; assay type: cell-based, human
# TOV-21-G cells = assay: qHTS ATPlite cell viability, TOV-21-G cells; assay type: cell-based, human; details: for IC50: Homo sapiens, TOV21G, 48 h; for Avg SI: TOV-21-G selective compounds, vs HEK 293T, >100 = inactive in HEK293T
# HDAC 1/2/3/11 = details: inhibits only HDAC 1/2/3/11; cited from earlier work
# [6] = test system: cervical cancer cell lines (HeLa, Ca Ski, C-33 A); assay: qHTS ATPlite cell viability, cervical cancer cell lines; assay type: cell-based; details: Homo sapiens
# HEK 293T cells [7] = test system: HEK 293T cells; parameters: method as in PMID 31498718; details: CellTiterGlo, cited from earlier work
# HEK 293T cells [8] = assay: cells; details: 48 h
# Procedure: as §1, §2
# [9] = test system: placental cancer cell lines (JAR, JEG-3); assay: qHTS ATPlite cell viability, placental cancer cell lines; assay type: cell-based, human; details: Homo sapiens, JEG-3; read-out: IC50 for the placental lines
# Procedure: as §1
# The ATPlite assay to determine the IC50 values for each compound was conducted as described above. Plates were processed on the fully integrated Kalypsys robotic system.
# [10] = Ovarian + placental cancer cell line killer
# [11] = average IC90 over the cell lines in which the compound is active, read-out: IC90
# [12] = Pan-GYN cancer cell line killer, vs HEK 293T, >100 = inactive in HEK293T (efficacy <50%)
compound,measurement,setting,value
"Cc1c2oc3c(C)ccc(C(=O)N[C@@H]4C(=O)N[C@H](C(C)C)C(=O)N5CCC[C@H]5C(=O)N(C)CC(=O)N(C)[C@@H](C(C)C)C(=O)O[C@@H]4C)c3nc-2c(C(=O)N[C@@H]2C(=O)N[C@H](C(C)C)C(=O)N3CCC[C@H]3C(=O)N(C)CC(=O)N(C)[C@@H](C(C)C)C(=O)O[C@@H]2C)c(N)c1=O [Actinomycin D] (I: T[dV]P[Sar][NMeV] / II: T[dV]P[Sar][NMeV]; ester I:1-I:C, II:1-II:C; linker I:N-II:N via Actinocin(9to1))",IC90,[1]; read-out: average IC90,512 nM
same,IC50,[2]; read-out: Average IC50 (μM),0.78 ± 0.222 µM
same,Average SI,[2]; [10],>100
same,Average SI,"[2]; Ovarian + placental cancer cell line killer, listed as actinomycin D",> 100
CC(C)C[C@H](NC(=O)[C@H](Cc1ccccc1)NC(=O)c1cnccn1)B(O)O [Bortezomib],IC90,[1]; [11],218 nM
same,IC50,"[1]; average over the cell lines in which the compound was active, read-out: average IC50",0.15 µM
same,Cell Lines Active,[1],8
same,Cmax,"[3]; intravenous dose, read-out: Cmax",580 nM
Cc1cc(CN2CCN(c3c(Br)cnc4nc(-c5ccc(N6CCN(C)CC6)cc5)[nH]c34)CC2)no1 [CCT137690],IC50,"[4]; mean of cell lines fulfilling criteria, 48 h",20 ± 7.02 µM
same,Average SI,"[4]; vs HEK 293T, >100 = inactive in HEK293T",>100
CC(=O)OC(C)(C)/C=C/C(=O)[C@](C)(O)[C@H]1[C@H](O)C[C@@]2(C)[C@@H]3CC=C4[C@H](C[C@H](O)C(=O)C4(C)C)[C@]3(C)C(=O)C[C@]12C [Curcubitacin B],IC50,CAOV-3 cells; 24 hours incubation,18.1 nM
same,IC50,CAOV-3 cells; 48 hours incubation,~20.6 nM
same,IC50,CAOV-3 cells; 72 hours incubation,22.2 nM
same,IC50,PA-1 cells; 48 hours incubation,63.2 nM
same,IC50,PA-1 cells; 72 hours incubation,61.8 nM
Nc1ccccc1NC(=O)c1ccc(CNC(=O)OCc2cccnc2)cc1 [Entinostat],IC50,"[1]; Pan-GYN cancer cell line killer, mean of all cell lines fulfilling criteria, 48 h, read-out: Average IC50",7.11 ± 6.62 µM
same,Average SI,[1]; [12],>100
same,Average SI,"[1]; Pan-GYN cancer cell line killer, vs HEK 293T, >100 = inactive in HEK293T (efficacy <50%), listed as entinostat",> 100
same,Cmax,"[3]; humans, 15 mg, read-out: Cmax",460 nM
same,potency of HDAC inhibition,HDAC 1/2/3,submicromolar potency
Cc1cnc(Nc2ccc(OCCN3CCCC3)cc2)nc1Nc1cccc(S(=O)(=O)NC(C)(C)C)c1 [Fedratinib],selective killing of ovarian cancer lines,"[5]; SI of 5 or greater, six ovarian lines",selectivity killed all six ovarian cancer lines
same,IC50,"[2]; Ovarian + placental cancer cell line killer, mean of cell lines fulfilling criteria, read-out: Average IC50",13.1 ± 7.51 µM
same,Average SI,[2]; [10],>100
same,Average SI,"[2]; Ovarian + placental cancer cell line killer, listed as fedratinib",> 100
"CNC(=O)c1nn(C)c2c1C(C)(C)Cc1cnc(Nc3ccc(N4CCN(C)CC4)cc3)nc1-2 [Milciclib, N,1,4,4-tetramethyl-8-{[4-(4-methylpiperazin-1-yl)phenyl]amino}-4,5-dihydro-1H-py razolo[4,3-h]quinazoline-3-carboxamide]",IC50,"TOV-21-G cells; TOV-21-G, confirmation screen, read-out: Avg IC50",0.0897 µM
same,Avg SI,TOV-21-G cells,50.1
Nc1ccccc1NC(=O)c1ccc(CNc2nccc(-c3cccnc3)n2)cc1 [Mocetinostat],IC50,"[1]; 48 h, read-out: Average IC50 (μM)",2.76 ± 1.98 µM
same,Average SI,[1]; [12],>100
same,Average SI,"[1]; Pan-GYN cancer cell line killer, vs HEK 293T, >100 = inactive in HEK293T (efficacy <50%), listed as mocetinostat",> 100
same,potency of HDAC inhibition,HDAC 1/2/3/11,low micromolar potency or below
same,Cmax,"[3]; 10 mg/kg, in humans, read-out: Cmax",~21400 nM
same,Cmax,"[3]; 40 mg/kg, in humans, read-out: Cmax",75700 nM
CCOc1cc2ncc(C#N)c(Nc3ccc(OCc4ccccn4)c(Cl)c3)c2cc1NC(=O)/C=C/CN(C)C [Neratinib],IC50,TOV-21-G cells; read-out: Avg IC50 (μM),0.619 µM
same,Avg SI,TOV-21-G cells,>100
Cc1[nH]c2ccccc2c1CCNCc1ccc(/C=C/C(=O)NO)cc1 [Panobinostat],IC50,"[5]; Homo sapiens, read-out: IC50 for the ovarian lines",343 nM
same,IC50,[6],224 nM
same,"Efficacy (%) (independent screen, HEK 293T)",HEK 293T cells [7],85.5%
same,Independent Screen (confirmation of HEK 293T toxicity),HEK 293T cells [7],Confirmed toxic
same,IC50,HEK 293T cells [7]; independent screen,162 nM
same,IC90,[1]; [11],719 nM
same,IC50,"[1]; toxic compounds, average over all cancer cell lines, 48 h, mean ± S.D., read-out: Average IC50",0.355 ± 0.268 µM
same,Cell Lines Active,[1],11
same,Average SI,"[1]; toxic compounds, selectivity index vs HEK 293T, average over all cancer cell lines, mean ± S.D.",0.92 ± 0.57
same,Efficacy (%) (HEK 293T toxicity),"HEK 293T cells [8]; HEK 293T, this screen (ATPlite)",82.6%
same,IC50,"HEK 293T cells [8]; Homo sapiens, HEK-293T, read-out: IC50 (HEK 293T toxicity)",210 nM
same,toxicity to HEK 293T cells,HEK 293T cells [8]; human,equally toxic to HEK 293T cells
same,IC50,[9],516 nM
same,Cmax,"[3]; oral administration, read-out: Cmax human plasma concentration, range",38 to 119 nM
same,Cmax,"[3]; oral administration, read-out: median Cmax human plasma concentration",61 nM
